Assay [1] addresses T1, Enoyl-acyl-carrier protein reductase (Plasmodium falciparum, UniProt Q965D5).
T1 sequence (Q965D5 whole entry): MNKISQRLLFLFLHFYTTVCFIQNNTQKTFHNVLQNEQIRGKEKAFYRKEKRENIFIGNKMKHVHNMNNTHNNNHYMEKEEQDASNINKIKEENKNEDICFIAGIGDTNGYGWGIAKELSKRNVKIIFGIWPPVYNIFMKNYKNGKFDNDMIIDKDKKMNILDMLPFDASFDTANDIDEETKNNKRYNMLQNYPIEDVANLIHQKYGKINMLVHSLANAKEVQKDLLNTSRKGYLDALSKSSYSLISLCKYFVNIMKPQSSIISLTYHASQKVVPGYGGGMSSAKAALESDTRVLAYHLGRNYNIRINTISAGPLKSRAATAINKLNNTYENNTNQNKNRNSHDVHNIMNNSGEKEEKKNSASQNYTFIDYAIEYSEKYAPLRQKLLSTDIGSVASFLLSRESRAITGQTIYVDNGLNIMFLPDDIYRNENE
Description: Inhibition of Plasmodium falciparum ENR enzymatic activity.

Assay [2] concerns Plasmodium falciparum. The assay can be described thus: Antimalarial activity against Plasmodium falciparum Dd2. The format is functional, organism-based.
In assay [3] the test system is Plasmodium falciparum. The assay can be described thus: Antimalarial activity against Plasmodium falciparum 3D7. The format is functional, organism-based.

Each structure is given as a SMILES string.

In the case of `Oc1cc(Cl)ccc1Oc1ccc(Cl)cc1CN1CCCC1`, in assay [1], the half-inhibitory concentration (IC50) (usually the concentration needed to halve the response being measured) was over 50000 nM. In addition, the EC50 – broadly, the concentration needed to bring the measured effect to its halfway point – in assay [2] was found to be 450 nM; in assay [3], 500 nM.

The compound `Oc1cc(Cl)ccc1Oc1ccc(Cl)cc1CN1CCN(Cc2ccccc2)CC1` gave an IC50 in assay [1] of 11000 nM. Moreover, the EC50 came out at 620 nM in assay [2] and 630 nM in assay [3].

In assay [1], `Oc1cc(Cl)ccc1Oc1ccc(Cl)cc1CNCc1ccc2c(c1)CCO2` gave a half-inhibitory concentration (IC50) of 9000 nM. Also, the concentration giving a half-maximal response (EC50) in assay [2] turned out to be 110 nM; in assay [3] it was 180 nM.

For `Nc1ccccc1Oc1ccc(Cl)cc1O`, in assay [1], the concentration for half-maximal inhibition (IC50) was 7000 nM. In addition, the EC50 in assay [2] was found to be 140000 nM; in assay [3], 83000 nM.

The compound `Oc1cc(Cl)ccc1Oc1ccc(Cl)cc1CNc1ccc2ccccc2c1` displayed a half-maximal inhibitory concentration (IC50) in assay [1] of 26000 nM. The values for the half-maximal effective concentration (EC50) in assay [2] and in assay [3] were 140 nM and 210 nM, respectively.

As for `COc1cc(Cl)ccc1Oc1ccccc1CNCc1ccc(Cl)cc1`, the IC50 in assay [1] is over 50000 nM. The EC50 in assay [2] stood at 24000 nM; in assay [3] it was 19000 nM.

In the case of `Oc1cc(Cl)ccc1Oc1ccc(Cl)cc1CN1CCCCC1`, the IC50 in assay [1] is over 50000 nM. Moreover, the EC50 in assay [2] was determined as 480 nM; in assay [3], 730 nM.

`Oc1cc(Cl)ccc1Oc1ccccc1CNCc1ccccc1` yielded a half-maximal inhibitory concentration (IC50) in assay [1] of 10000 nM. Further, the EC50 came to 420 nM in assay [2] and 490 nM in assay [3].

Consider `Oc1cc(Cl)ccc1Oc1ccccc1CNCc1ccc(Cl)cc1`, for which it took 35000 nM to reach half-maximal inhibition in assay [1] (IC50). Besides, the concentration giving a half-maximal response (EC50) in assay [2] was determined as 300 nM; in assay [3], 330 nM.

In assay [1], `O=C(NCc1cc(Cl)ccc1Oc1ccc(Cl)cc1O)c1ccccc1` showed an IC50 of 18000 nM. The 50% effective concentration (EC50) was 12000 nM in assay [2] and 8600 nM in assay [3].

Consider `Oc1cc(Cl)ccc1Oc1ccccc1CNCCCc1ccccc1`, for which the IC50 in assay [1] came to 19000 nM. The concentration for a half-maximal effect (EC50) came to 390 nM in assay [2] and 320 nM in assay [3].

In turn, `Oc1cc(Cl)ccc1Oc1ccccc1CNc1cccc2ccccc12` showed a concentration for half-maximal inhibition (IC50) in assay [1] of 11000 nM. In addition, the 50% effective concentration (EC50) in assay [2] came out at 370 nM; in assay [3], 300 nM.

`CC(C)(NCc1ccc(Cl)cc1)c1cc(Cl)ccc1Oc1ccc(Cl)cc1O`: 7200 nM corresponded to half-maximal inhibition in assay [1] (IC50). For the same compound, the figures for the concentration giving a half-maximal response (EC50) in assay [2] and in assay [3] were 350 nM and 410 nM, respectively.

In assay [1], `Oc1cc(Cl)ccc1Oc1ccccc1CNc1ccc2ccccc2c1` showed a half-maximal inhibitory concentration (IC50) of 46000 nM. The half-maximal effective concentration (EC50) in assay [2] was determined as 330 nM; in assay [3], 450 nM.

With `Oc1cc(Cl)ccc1Oc1ccc(Cl)cc1CNCc1ccccc1`, the half-inhibitory concentration (IC50) in assay [1] is 3300 nM. Moreover, the results for the concentration giving a half-maximal response (EC50) in assay [2] and in assay [3] were 830 nM and 770 nM, respectively.

On to `Oc1cc(Cl)ccc1Oc1ccc(Cl)cc1CNc1cccc2ccccc12`, for which the IC50 in assay [1] was over 50000 nM. In addition, the EC50 in assay [2] came to 2200 nM; in assay [3] it was 2600 nM.

`CNCc1cc(Cl)ccc1Oc1ccc(Cl)cc1O` showed a half-maximal inhibitory concentration (IC50) in assay [1] of 27000 nM. Further, the half-maximal effective concentration (EC50) in assay [2] is 470 nM; in assay [3], 580 nM.

For the compound `CN(Cc1ccc(Cl)cc1)Cc1cc(Cl)ccc1Oc1ccc(Cl)cc1O`, in assay [1], the half-maximal inhibitory concentration (IC50) came out at 22000 nM. Also, the 50% effective concentration (EC50) in assay [2] was 190 nM; in assay [3] it was 250 nM.

`Oc1cc(Cl)ccc1Oc1ccc(Cl)cc1CNCc1ccc(-c2ccccc2)cc1` gave an IC50 in assay [1] of 35000 nM. The half-maximal effective concentration (EC50) in assay [2] worked out at 150 nM; in assay [3], 230 nM.

`Oc1cc(Cl)ccc1Oc1ccc(Cl)cc1CN1CCN(C(c2ccccc2)c2ccccc2)CC1`: in assay [1], the half-maximal inhibitory concentration (IC50) was over 50000 nM. For the same compound, the EC50 came out at 1400 nM in assay [2] and 2100 nM in assay [3].

With `NCc1cc(Cl)ccc1Oc1ccc(Cl)cc1O`, the IC50 in assay [1] is over 50000 nM. Also, the EC50 in assay [2] stood at 2000 nM; in assay [3], 2700 nM.

In assay [1], `CC(=O)N(Cc1ccc(Cl)cc1)Cc1cc(Cl)ccc1Oc1ccc(Cl)cc1O` registered a 50% inhibitory concentration (IC50) of 28000 nM. Besides, the values for the concentration giving a half-maximal response (EC50) in assay [2] and in assay [3] were 5900 nM and 3500 nM, respectively.

Regarding `CN(C)Cc1cc(Cl)ccc1Oc1ccc(Cl)cc1O`, the concentration for half-maximal inhibition (IC50) in assay [1] worked out at 19000 nM. For the same compound, the half-maximal effective concentration (EC50) was determined as 220 nM in assay [2] and 180 nM in assay [3].

`Oc1cc(Cl)ccc1Oc1ccc(Cl)cc1CN1CCN(c2ccccc2)CC1` yielded an IC50 in assay [1] of 6100 nM. The half-maximal effective concentration (EC50) in assay [2] came to 15000 nM; in assay [3] it was 14000 nM.

`Oc1cc(Cl)ccc1Oc1ccccc1CNCCc1ccccc1`: in assay [1], half-maximal inhibition (IC50) was put at 2500 nM. The EC50 in assay [2] turned out to be 750 nM; in assay [3], 780 nM.

Take `Oc1cc(Cl)ccc1Oc1ccc(Cl)cc1CNCc1ccc(Cl)cc1`: in assay [1], inhibition was half-maximal at 7200 nM (IC50). Besides, the EC50 in assay [2] was found to be 270 nM; in assay [3], 320 nM.

In assay [1], `CN(Cc1ccc(Cl)cc1)C(C)(C)c1cc(Cl)ccc1Oc1ccc(Cl)cc1O` displayed a concentration for half-maximal inhibition (IC50) of 27000 nM. For the same compound, the results for the EC50 in assay [2] and in assay [3] were 380 nM and 140 nM, respectively.

Regarding `NCc1ccccc1Oc1ccc(Cl)cc1O`, the IC50 in assay [1] is over 50000 nM. Further, the 50% effective concentration (EC50) in assay [2] amounted to 7200 nM; in assay [3], 9700 nM.

For the compound `O=S(=O)(NCc1cc(Cl)ccc1Oc1ccc(Cl)cc1O)c1ccccc1`, the IC50 in assay [1] turned out to be 15000 nM. For the same compound, the EC50 in assay [2] came out at 17000 nM; in assay [3] it was 11000 nM.

Source of the values: ChEMBL document CHEMBL1146948, “Synthesis and biological activity of diaryl ether inhibitors of malarial enoyl acyl carrier protein reductase. Part 2: 2'-substituted triclosan derivatives” (Bioorg Med Chem Lett, 2006).
